Target: acetylcholinesterase (T.californica) (Tetronarce californica, UniProt P04058)
Experiment: Antibody modulation of inhibition by Compound II and reversal by cholylglycine
Format: biochemical
Method: Antibody against cholylglycine-bovine serum albumin (BSA) conjugates were raised in rabbits, and the rabbit serum obtained by conventional techniques. The anti-cholylglycine IgG fraction was obtained by ammonium sulfate fractionation and ion exchange chromatography. The concentration of antibody was not determined but was adjusted from a pooled fraction from the ion exchange column to give best modulation of inhibition by Compound II. […] The experiment is carried out on an ABA-100® model bichromatic analyzer (Abbott Laboratories, North Chicago, Illinois) and the following settings were used:
The substrate solution and buffer are placed in the primary syringe of the dilution plate. The buffer is pH 7.0, 0.1 M potassium phosphate, 0.1% gelatin. The substrate is acetylthiocholine at 5.0×10^-4 M with DTNB at 1.6×10^-4 M as indicator. […] In all cases, the acetylcholinesterase (T.californica) concentration is approximately 2×10^-10 M and Compound II, the inhibitor, concentration is 10×10^-7 M. Where cholylglycine is added, the concentration in the sample cup is 10^-3 M. The sample cup contains pH 7.0, 0.1 M potassium phosphate buffer containing 0.1% gelatin plus the indicated components in the table: […]

[1] = enzyme + the substance only, T = 0 (E alone .246)
[2] = enzyme + the substance only, T = 13 min (E alone .237)
[3] = enzyme + the substance only, T = 25 min (E alone .234)
[4] = enzyme + the substance only, T = 36 min (E alone .230)

Chain of acetylcholinesterase (T.californica) (P04058 22-564): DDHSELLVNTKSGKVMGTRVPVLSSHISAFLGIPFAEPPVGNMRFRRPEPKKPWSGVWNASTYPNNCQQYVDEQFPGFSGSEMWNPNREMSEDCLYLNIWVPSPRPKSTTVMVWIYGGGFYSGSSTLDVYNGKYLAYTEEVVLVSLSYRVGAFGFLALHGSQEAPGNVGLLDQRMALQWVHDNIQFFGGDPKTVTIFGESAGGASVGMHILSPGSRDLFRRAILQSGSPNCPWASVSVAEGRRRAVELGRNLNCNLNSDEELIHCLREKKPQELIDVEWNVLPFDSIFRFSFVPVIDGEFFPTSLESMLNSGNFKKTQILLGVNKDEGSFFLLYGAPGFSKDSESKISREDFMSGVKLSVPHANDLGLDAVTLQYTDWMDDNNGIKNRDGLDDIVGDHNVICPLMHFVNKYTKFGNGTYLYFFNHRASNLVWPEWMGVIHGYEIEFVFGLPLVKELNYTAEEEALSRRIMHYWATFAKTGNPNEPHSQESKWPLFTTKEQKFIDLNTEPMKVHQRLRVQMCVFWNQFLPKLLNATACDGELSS

Row | SMILES | Change in Ad in 5 Minutes (E + Ab + CG (10^-3 M), no inhibitor, T = 0) | Change in Ad in 5 Minutes (E + Ab + CG (10^-3 M), no inhibitor, T = 13 min) | Change in Ad in 5 Minutes (E + Ab + CG (10^-3 M), no inhibitor, T = 25 min) | Change in Ad in 5 Minutes (E + Ab + CG (10^-3 M), no inhibitor, T = 36 min) | Change in Ad in 5 Minutes [1] | Change in Ad in 5 Minutes [2] | Change in Ad in 5 Minutes [3] | Change in Ad in 5 Minutes [4] | Change in Ad in 5 Minutes (E + I + Ab + CG (10^-3 M), T = 0) | Change in Ad in 5 Minutes (E + I + Ab + CG (10^-3 M), T = 13 min) | Change in Ad in 5 Minutes (E + I + Ab + CG (10^-3 M), T = 25 min) | Change in Ad in 5 Minutes (E + I + Ab + CG (10^-3 M), T = 36 min) | Change in Ad in 5 Minutes (E + I + Ab, T = 0) | Change in Ad in 5 Minutes (E + I + Ab, T = 13 min) | Change in Ad in 5 Minutes (E + I + Ab, T = 25 min) | Change in Ad in 5 Minutes (E + I + Ab, T = 36 min) | Change in Ad in 5 Minutes (E + I + CG (10^-3 M), T = 0) | Change in Ad in 5 Minutes (E + I + CG (10^-3 M), T = 13 min) | Change in Ad in 5 Minutes (E + I + CG (10^-3 M), T = 25 min) | Change in Ad in 5 Minutes (E + I + CG (10^-3 M), T = 36 min)
1 | C[C@H](CCC(=O)NCC(=O)O)[C@H]1CC[C@H]2[C@@H]3[C@H](O)C[C@@H]4C[C@H](O)CC[C@]4(C)[C@H]3C[C@H](O)[C@]12C [CG, cholylglycine, reference compound] | .225 Ad/5 Min. | .223 Ad/5 Min. | .216 Ad/5 Min. | .207 Ad/5 Min. | .236 Ad/5 Min. | .228 Ad/5 Min. | .220 Ad/5 Min. | .211 Ad/5 Min. |  |  |  |  |  |  |  |  |  |  |  | 
2 | CCOP(=O)(OCCCCCNC(=O)CCCCCNC(=O)CC[C@@H](C)[C@H]1CC[C@H]2[C@@H]3[C@H](O)C[C@@H]4C[C@H](O[Si](C)(C)C(C)(C)C)CC[C@]4(C)[C@H]3C[C@H](O)[C@]12C)Oc1ccc2ccc[n+](C)c2c1 (stereo partly drawn) [Compound II] |  |  |  |  | .226 Ad/5 Min. | .072 Ad/5 Min. | .025 Ad/5 Min. | .013 Ad/5 Min. | .224 Ad/5 Min. | .078 Ad/5 Min. | .032 Ad/5 Min. | .017 Ad/5 Min. | .235 Ad/5 Min. | .192 Ad/5 Min. | .164 Ad/5 Min. | .147 Ad/5 Min. | .224 Ad/5 Min. | .062 Ad/5 Min. | .022 Ad/5 Min. | .013 Ad/5 Min.
